We go through nine compounds from paper PMC8876231, “Analogues of Natural Chalcones as Efficient Inhibitors of AKR1C3” (Metabolites, 2022).

Assay [1] relates to AKR1C3. Conditions: co-crystallised ligand of PDB 3UWE; cited from earlier work.
The target of assay [2] is T1, AKR1C3 (Homo sapiens, UniProt P42330).
T1 construct: GST (own knowledge: pGEX vectors encode N-terminal GST); made in house; host or cells: E. coli BL21 DE3 Codon Plus RP, lysate
T1 sequence (P42330 1-323): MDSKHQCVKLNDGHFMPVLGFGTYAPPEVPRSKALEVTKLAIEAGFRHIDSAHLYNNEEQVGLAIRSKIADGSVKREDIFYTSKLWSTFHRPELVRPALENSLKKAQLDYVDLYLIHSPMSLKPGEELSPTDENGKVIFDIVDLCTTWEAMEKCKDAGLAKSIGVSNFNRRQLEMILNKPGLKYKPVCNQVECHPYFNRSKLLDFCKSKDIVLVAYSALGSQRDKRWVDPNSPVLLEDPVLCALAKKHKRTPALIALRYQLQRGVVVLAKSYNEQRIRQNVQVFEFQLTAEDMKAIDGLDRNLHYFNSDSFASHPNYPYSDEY
The assay is described as follows: AKR1C3 enzymatic inhibition assay (∆4-androstene-3,17-dione to testosterone). In kind it is biochemical. Conditions: 10 µM compound, ∆4-androstene-3,17-dione reduction, triplicates, mean ± SD. The source says:
For enzymatic assays and inhibitor testing, all enzymes were cloned into bacterial or mammalian expression vectors. AKR1C3 and the human hydroxysteroid dehydrogenases HSD17B1, HSD17B2, HSD17B4 (SDR domain), HSD17B7, and HSD17B10 were cloned into a pGEX vector as described in [71, 72]. The coding sequences for AKR1C1, AKR1C2, and AKR1C4 were cloned by Gateway technology into the pcDNA3-N-MycDest vector according to the manufacturer’s instructions (Life Technologies, Carlsbad, CA, USA). The p11 plasmid coding for HSD17B14 (S205 variant) was a gift from Udo Opperman SGC Oxford, UK. For assays with HSD17B3, HEK293 cells stably expressing HSD17B3 were used. Enzymes were expressed in E. coli BL21 DE3 or E. coli BL21 DE3 Codon Plus RP (Stratagene, San Diego, CA, USA) or in HEK293 cells as described in [71, 72, 73]. Bacterial and cell pellets were stored at −20 °C and −80 °C, respectively, until use.
Inhibition assays were carried out as described in [71, 74]. […] For a detailed assay setup, see Supplementary Table S6. The incubation at 37 °C was stopped with 0.21 M ascorbic acid in methanol:acetic acid 99:1 (v:v) after the time needed to convert approximately 30% of the substrate in a control assay with 1% DMSO, without inhibitor candidate. Substrates and products were extracted from the reaction mixture by solid-phase extraction using C18 cartridges (Phenomenex, Aschaffenburg, Germany) and separated by RP–HPLC in a Beckman–Coulter HPLC Gold system, using the Luna 5 µm C18(2), 125 × 4.0 mm column (Phenomenex). The mobile phases used were H2O:ACN (57:43 (v:v); for assays of estrone (E1) to oestradiol (E2), E2 to E1, and ∆4-androstene-3,17-dione to testosterone conversion), H2O:ACN (49:51 (v:v); for assays of progesterone to 20α-hydroxyprogesterone conversion), and H2O:MeOH (35:65 (v:v) for assays of dihydrotestosterone (DHT) to 3α-androstanediol conversion) at a flow rate of 1 mL/min. Radioactivity was detected by online scintillation counting by using a radioactivity monitor (LB506D, Berthold Technologies, Bad Wildbad, Germany). Conversion of substrates to products was determined by integration of the peak area of the substrate and product peaks in percent. For calculation of inhibition, the conversion of control assay (assay without inhibitor) was set to 0% inhibition. All assays were run in triplicates, and mean values ± SD are reported.
For the determination of IC50 values, percent inhibition values were fitted using the Enzyme Kinetics module of SigmaPlot 13.0 and the one-site ligand-binding model according to the formula f = Bmax * abs(x)/(Kd + abs(x)).
Table S6: Activity assay setup […]
E1: estrone; E2: 17β-estradiol, A: Δ4-androstene-3,17-dione; T: testosterone, P: progesterone, 20αOHP: 20α-hydroxyprogesterone, DHT: dihydrotestosterone, 3α-Adiol: 3α-androstanediol, NaPi: 100 mM Na-phosphate buffer; PI: C0mplete protease inhibitor (Roche);. E.coli - Expression in E.coli BL21 DE3 Codon Plus RP except E.coli BL21 DE3 […]
application to antiparasitic and natural product synthesis. Eur J Org Chem […]
Synthesis of Xanthohumol analogues and discovery of potent thioredoxin reductase inhibitor as potential anticancer agent. J Med Chem 2015, 58,

The subject of the next assay is 17β-HSD. Details: method as in PMID 11205867. The note with it: human placental microsomes, compound concentration 10 µM; cited from earlier work.
A further assay addresses aromatase. Set-up: method as in PMID 11205867. The note with it: human placental microsomes; cited from earlier work.
For a further assay, the system named is DU145. Set-up: method as in PMID 12706007. The note with it: human prostate cancer cell line DU145; read-out: IC50 growth inhibition DU145; cited from earlier work.
The test system of another assay is LNCaP. Set-up: method as in PMID 12706007. Conditions: human prostate cancer cell line LNCaP; read-out: IC50 growth inhibition LNCaP; cited from earlier work.

The IC50 is the concentration that gives 50% inhibition. In general, inhibition refers to the relative decrease from the control value, in per cent. Read a low inhibition as little suppression.

SMILES strings stand for the structures. Several values for one entry are separate records, joined by “and”; a condition that tells them apart may be missing. Equal values may be shown once.

As for `O=C(O)c1cccc(Oc2ccccc2)c1` [3-phenoxybenzoic acid], in the assay with AKR1C3 [1], the IC50 is 0.68 µM.
Regarding `O=C(/C=C/c1ccc(O)c(O)c1)c1ccc(O)cc1O` [Butein (17), butein, reference compound], the inhibition at 10 µM at AKR1C3 [2] turned out to be 37.2 ± 1.4%.
Turning to `O=C(/C=C/c1ccc(Cl)cc1)c1c(O)cc(O)cc1O` [Compound 22], the “AKR1C3 Inhibition at 10 µM [%]” value on AKR1C3 [2] was determined as 70.8 ± 3.8%.
Take `COc1cc(O)cc(O)c1C(=O)/C=C/c1ccc(O)cc1` [Compound 24]: the “AKR1C3 Inhibition at 10 µM [%]” value on AKR1C3 [2] turned out to be 24.6 ± 4.8%.
Same read-out and setting: next, `O=C(/C=C/c1ccc(F)cc1)c1c(O)cc(O)cc1O` [Compound 26]: 68.5 ± 6.4%.
Regarding `COc1cc(O)cc(O)c1C(=O)/C=C/c1ccc(F)cc1` [Compound 27], the “AKR1C3 Inhibition at 10 µM [%]” value at AKR1C3 [2] (10 µM) was 26.1% and 20.3 ± 8.4%.
Turning to `COc1cc(O)cc(O)c1C(=O)/C=C/c1ccc(Cl)cc1` [Compound 28], the “AKR1C3 Inhibition at 10 µM [%]” value on AKR1C3 [2] (10 µM) is 20.3% and 26.1 ± 2.0%.
For `O=C(/C=C/c1ccc(O)cc1)c1c(O)cc(O)cc1O` [Compound 29, naringenin chalcone], the 17β-HSD inhibition in the assay on 17β-HSD is on record as 2.4%. Besides, at aromatase, the IC50 was 2.6 µM. Also, the “AKR1C3 Inhibition at 10 µM [%]” value on AKR1C3 [2] amounted to 40.6 ± 7.7%.
For the compound `O=C(/C=C/c1ccc(O)cc1)c1ccc(O)cc1O` [Isoliquiritigenin (16), isoliquiritigenin, reference compound], the 17β-HSD inhibition in the assay on 17β-HSD is 10%. The IC50 in the assay on DU145 is 11 µM; in the assay with LNCaP, 13 µM. For the same compound, testing at 10 µM on AKR1C3 [2] gave an inhibition of 31.1 ± 3.2%.
